In PMC3898987 (Bioorganic & Medicinal Chemistry, 2013):
Numbering of substitutions follows the chain as printed.

How the values were obtained:
[1] = biological target: T1, 5-HT3AB receptor, 5-HT3B subunit Y143A (Homo sapiens, UniProt O95264+P46098, Y136A); assay: radioligand saturation binding, transfected HEK293 membranes; conditions: [3H]-palonosetron saturation, 5-HT3AB with 5-HT3B Y143A, 4 °C, 24 h
T1 sequence (P46098 24-478): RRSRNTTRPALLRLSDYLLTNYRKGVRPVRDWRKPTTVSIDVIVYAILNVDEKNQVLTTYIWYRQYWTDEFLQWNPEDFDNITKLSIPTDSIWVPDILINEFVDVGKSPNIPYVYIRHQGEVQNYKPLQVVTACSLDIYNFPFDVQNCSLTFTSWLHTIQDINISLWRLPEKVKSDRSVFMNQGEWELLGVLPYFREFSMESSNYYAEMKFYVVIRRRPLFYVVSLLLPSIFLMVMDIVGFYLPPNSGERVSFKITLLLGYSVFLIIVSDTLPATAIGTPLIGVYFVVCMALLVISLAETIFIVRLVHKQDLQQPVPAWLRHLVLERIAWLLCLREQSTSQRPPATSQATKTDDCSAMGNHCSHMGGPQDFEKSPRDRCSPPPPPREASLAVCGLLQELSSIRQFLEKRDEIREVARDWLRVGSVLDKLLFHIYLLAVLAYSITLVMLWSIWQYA
T1 sequence (O95264 22-441 Y136A): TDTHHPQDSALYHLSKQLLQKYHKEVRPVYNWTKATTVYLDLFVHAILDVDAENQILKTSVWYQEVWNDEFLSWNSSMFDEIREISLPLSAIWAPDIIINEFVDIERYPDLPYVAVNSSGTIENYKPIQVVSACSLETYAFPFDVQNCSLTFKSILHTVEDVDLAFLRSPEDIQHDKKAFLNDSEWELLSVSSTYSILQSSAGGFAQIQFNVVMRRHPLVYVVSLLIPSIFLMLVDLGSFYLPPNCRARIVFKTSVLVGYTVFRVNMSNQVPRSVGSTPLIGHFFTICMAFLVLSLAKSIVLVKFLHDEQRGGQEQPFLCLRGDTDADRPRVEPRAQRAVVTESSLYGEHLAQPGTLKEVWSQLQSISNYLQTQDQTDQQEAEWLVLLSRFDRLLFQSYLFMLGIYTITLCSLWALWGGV
Experimental: (§1) Human embryonic kidney (HEK) 293 cells were cultured on 90 mm tissue culture plates at 37 °C and 7% CO2 in a humidified atmosphere. They were grown in DMEM:F12 (Dulbecco’s Modified Eagle’s Medium/Nutrient Mix F12 (1:1)) with GlutaMAX I™ containing 10% fetal calf serum and passaged when confluent. For radioligand binding studies, cells in 90 mm dishes were transfected at 60–70% confluency using polyethyleneimine and incubated for 3–4 days before use. For FlexStation assays, transfected cells were plated on 96-well plates and incubated 1–2 days before assay. […]
(§2) Eight-point binding assays were performed to produce saturation binding curves. […] Radioactive counts were measured using a Beckman LS6000SC liquid scintillation counter (Fullerton, California, USA).
(§3) Data were analyzed by iterative curve fitting using GraphPad Prism v5 (San Diego, CA) according to the following equation: B=Bmax[L]^n/kdn+[L]^n where B is the amount of bound radioligand, Bmax is the maximum specific binding at equilibrium, [L] is the concentration of radioligand, Kd is the equilibrium dissociation constant of the radioligand, and n is the Hill coefficient.

WT 5-HT3AB receptor = biological target: T2, WT 5-HT3AB receptor (Homo sapiens, UniProt O95264+P46098); assay: as above; conditions: [3H]-palonosetron saturation, 4 °C, 24 h
T2 sequence (P46098 24-478): T1 sequence (P46098 24-478)
T2 sequence (O95264 22-441): T1 sequence (O95264 22-441 Y136A) with A115Y
Experimental: as §1, §2, §3

[2] = biological target: T3, 5-HT3AB receptor, 5-HT3B subunit I183A (Homo sapiens, UniProt O95264+P46098, I176A); assay: cell-based
T3 sequence (P46098 24-478): T1 sequence (P46098 24-478)
T3 sequence (O95264 22-441 I176A): T1 sequence (O95264 22-441 Y136A) with A115Y, I155A
Experimental: (§4) For FlexStation assays, transfected cells were plated on 96-well plates and incubated 1–2 days before assay.
(§5) Fluorometric studies were undertaken using a FlexStation® (Molecular Devices, Sunnyvale, CA, USA) as previously described.[11]
(§6) Fluorescence was measured every 2 s for 200 s. […] Concentration–response and inhibition curves were obtained for each mutant, and the fluorescence values were normalized to the maximal response.

[3] = biological target: T1, 5-HT3AB receptor, 5-HT3B subunit Y143A; assay: FlexStation membrane potential dye functional assay, HEK293 cells; conditions: 5-HT concentration-response, 5-HT3AB with 5-HT3B Y143A
Experimental: as §4, §5, §6

[4] = biological target: T4, 5-HT3AB receptor, 5-HT3B subunit F130A (Homo sapiens, UniProt O95264+P46098, F123A); assay: as above; conditions: 5-HT concentration-response, 5-HT3AB with 5-HT3B F130A
T4 sequence (P46098 24-478): T1 sequence (P46098 24-478)
T4 sequence (O95264 22-441 F123A): T1 sequence (O95264 22-441 Y136A) with F102A, A115Y
Experimental: Human embryonic kidney (HEK) 293 cells were cultured on 90 mm tissue culture plates at 37 °C and 7% CO2 in a humidified atmosphere. They were grown in DMEM:F12 (Dulbecco’s Modified Eagle’s Medium/Nutrient Mix F12 (1:1)) with GlutaMAX I™ containing 10% fetal calf serum and passaged when confluent. […] For FlexStation assays, transfected cells were plated on 96-well plates and incubated 1–2 days before assay.
as §5, §6

SMILES	Kd [1] [nM]	Kd (WT 5-HT3AB receptor) [nM]	IC50 [2] [nM]	Hill Coefficient [3]	Hill Coefficient [4]
O=C1c2cccc3c2[C@H](CCC3)CN1[C@@H]1CN2CCC1CC2 [Palonosetron]	0.18 ± 0.04	0.18 ± 0.02	0.34 ± 0.08	–	–
NCCc1c[nH]c2ccc(O)cc12 [5-HT, serotonin]	–	–	–	1.3 ± 0.2	1.4 ± 0.2
